According to publication PMC3214968 (Journal of medicinal chemistry, 2011):

Key:
[1] = biological target: T1, matriptase activation (Homo sapiens, UniProt Q9Y5Y6); type: cell-based; details: 184 A1N4 intact cells; for Inhibition of matriptase activation by immunoblot, increasing concentrations: pH 6.0, mAb M24 and M69
T1 sequence (Q9Y5Y6 1-855): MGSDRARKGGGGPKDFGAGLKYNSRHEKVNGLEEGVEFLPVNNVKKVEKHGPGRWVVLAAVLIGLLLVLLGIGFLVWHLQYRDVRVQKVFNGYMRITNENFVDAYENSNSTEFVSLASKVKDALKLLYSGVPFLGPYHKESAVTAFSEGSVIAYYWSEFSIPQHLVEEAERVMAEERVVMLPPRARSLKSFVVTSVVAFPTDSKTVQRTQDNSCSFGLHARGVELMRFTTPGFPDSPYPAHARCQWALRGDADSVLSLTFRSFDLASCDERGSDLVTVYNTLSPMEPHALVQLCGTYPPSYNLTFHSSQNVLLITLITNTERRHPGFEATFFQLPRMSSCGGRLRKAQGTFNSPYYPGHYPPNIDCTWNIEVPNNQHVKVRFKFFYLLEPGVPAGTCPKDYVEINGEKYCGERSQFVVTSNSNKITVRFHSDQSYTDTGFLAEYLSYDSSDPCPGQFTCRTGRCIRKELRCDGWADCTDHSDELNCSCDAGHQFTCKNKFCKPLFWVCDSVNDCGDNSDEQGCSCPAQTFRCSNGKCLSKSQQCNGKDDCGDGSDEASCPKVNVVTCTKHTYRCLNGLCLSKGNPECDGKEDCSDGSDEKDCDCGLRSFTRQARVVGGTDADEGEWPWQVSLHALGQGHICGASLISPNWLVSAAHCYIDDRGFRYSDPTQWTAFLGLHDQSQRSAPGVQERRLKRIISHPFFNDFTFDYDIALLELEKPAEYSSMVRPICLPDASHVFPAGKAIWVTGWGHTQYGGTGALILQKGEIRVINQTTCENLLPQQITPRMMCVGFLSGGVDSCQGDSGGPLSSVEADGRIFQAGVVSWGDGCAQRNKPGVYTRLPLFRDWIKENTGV

[2] = biological target: T1, matriptase activation; test: Cell-free in vitro matriptase activation assay; type: biochemical; details: insoluble fractions of 184 A1N4 cell homogenates, pH 6.0
[3] = biological target: T1, matriptase activation; test: Acid-induced matriptase activation in HaCaT keratinocytes, immunoblot; type: cell-based; details: HaCaT cells, pH 6.0, dose-dependent
[4] = tested on: prostasin activation; test: Acid-induced prostasin activation in HaCaT keratinocytes, immunoblot; type: cell-based, human; details: HaCaT cells, pH 6.0, dose-dependent
[5] = biological target: T2, matriptase zymogen activation (Homo sapiens, UniProt Q9Y5Y6); test: Cell-based, ELISA-like matriptase activation assay; details: 184 A1N4 cells, pH 6.0 buffer, 20 min, ELISA-like assay and immunoblot
T2 sequence (Q9Y5Y6 1-855): T1 sequence (Q9Y5Y6 1-855)

Compound	Inhibition of matriptase activation by immunoblot, increasing concentrations [1]	Inhibition of acid-induced activation of matriptase [3]	120-kDa matriptase-HAI-1 complex (matriptase activation) by immunoblot ([1]; 5 μM compound, pH 6.0)	Inhibition of matriptase activation in the cell-free system [2]	Inhibition of acid-induced activation of prostasin [4]	NaCl-mediated inhibition of acid-induced matriptase activation [5]
O=C(C1=C(O)C(=O)N(c2nccs2)C1c1cccs1)c1cccs1 (centres unmarked) [compound 1, 3-hydroxy-1-(thiazol-2-yl)-5-(thiophen-2-yl)-4-(thiophene-2-carbonyl)-1H-pyrrol-2(5H)-one]	same pattern of inhibition	same pattern of inhibition	–	suppress matriptase activation in a dose-dependent manner	same pattern of inhibition	–
Sodium chloride [NaCl]	–	–	–	–	–	dose-dependent manner

Now from value to compound, other results behind:

Inhibition of matriptase activation by immunoblot, increasing concentrations [1]	Inhibition of acid-induced activation of matriptase [3]	120-kDa matriptase-HAI-1 complex (matriptase activation) by immunoblot ([1]; 5 μM compound, pH 6.0)	Compound	Inhibition of matriptase activation in the cell-free system [2]	Inhibition of acid-induced activation of prostasin [4]	NaCl-mediated inhibition of acid-induced matriptase activation [5]
–	clearly inhibited	no detectable 120-kDa complex	Cc1nc(N2C(=O)C(O)=C(C(=O)c3cccs3)C2c2cccs2)sc1C (centres unmarked) [compound 2, 1-(4,5-dimethylthiazol-2-yl)-3-hydroxy-5-(thiophen-2-yl)-4-(thiophene-2-carbonyl)-1H-pyrrol-2(5H)-one]	suppress matriptase activation in a dose-dependent manner	clearly inhibited	–
same pattern of inhibition	same pattern of inhibition	–	Cc1nc(N2C(=O)C(O)=C(C(=O)c3cccs3)C2c2ccccc2)sc1C (centres unmarked) [compound 3, 1-(4,5-dimethylthiazol-2-yl)-3-hydroxy-5-phenyl-4-(thiophene-2-carbonyl)-1H-pyrrol-2(5H)-one]	suppress matriptase activation in a dose-dependent manner	same pattern of inhibition	–
same pattern of inhibition	same pattern of inhibition	–	Cc1nc(N2C(=O)C(O)=C(C(=O)c3ccccc3)C2c2cccs2)sc1C (centres unmarked) [compound 4, 4-benzoyl-1-(4,5-dimethylthiazol-2-yl)-3-hydroxy-5-(thiophen-2-yl)-1H-pyrrol-2(5H)-one]	suppress matriptase activation in a dose-dependent manner	same pattern of inhibition	–
